Results taken from ChEMBL document CHEMBL1131689, “Synthesis and evaluation of geldanamycin-estradiol hybrids” (Bioorg Med Chem Lett, 1999).

Key:
Format in all cases: functional, cell-based
[1] = Inhibition of steady-state expression of HER2 in MCF-7 breast cancer cells; settings: Homo sapiens, MCF7
[2] = Inhibition of steady-state expression of ER in MCF-7 breast cancer cells; settings: Homo sapiens, MCF7
Heat shock protein HSP90 = Heat shock protein HSP90 (Homo sapiens, UniProt P07900+P08238); test: Inhibition of steady-state expression of Raf-1 in MCF-7 breast cancer cells; settings: mcf7

Compound | IC50 [1] | IC50 [2] | IC50 (Heat shock protein HSP90)
CO[C@@H]1/C=C\C=C(/C)C(=O)NC2=CC(=O)C(NCC#CC[C@@H]3C[C@H]4[C@@H]5CCc6cc(O)ccc6[C@H]5CC[C@]4(C)[C@H]3O)=C(C[C@H](C)C[C@@H](OC)[C@@H](O)[C@H](C)/C=C(\C)[C@H]1OC(N)=O)C2=O | 100 nM | 220 nM | 1500 nM
CO[C@@H]1/C=C\C=C(/C)C(=O)NC2=CC(=O)C(NCCC[C@@H]3C[C@H]4[C@@H]5CCc6cc(O)ccc6[C@H]5CC[C@]4(C)[C@H]3O)=C(C[C@H](C)C[C@@H](OC)[C@@H](O)[C@H](C)/C=C(\C)[C@H]1OC(N)=O)C2=O | > 2000 nM | > 2000 nM | > 2000 nM
CO[C@@H]1/C=C\C=C(/C)C(=O)NC2=CC(=O)C(NCCCC[C@@H]3C[C@H]4[C@@H]5CCc6cc(O)ccc6[C@H]5CC[C@]4(C)[C@H]3O)=C(C[C@H](C)C[C@@H](OC)[C@@H](O)[C@H](C)/C=C(\C)[C@H]1OC(N)=O)C2=O | > 2000 nM | > 2000 nM | > 2000 nM
CO[C@@H]1/C=C\C=C(/C)C(=O)NC2=CC(=O)C(NC/C=C/C[C@@H]3C[C@H]4[C@@H]5CCc6cc(O)ccc6[C@H]5CC[C@]4(C)[C@H]3O)=C(C[C@H](C)C[C@@H](OC)[C@@H](O)[C@H](C)/C=C(\C)[C@H]1OC(N)=O)C2=O | 100 nM | 80 nM | 1500 nM
